Data on 1 compound can be found in patent publication US8129425B2, “Small organic molecule regulators of cell proliferation” (Curis, Inc., priority 2000, dated 2012).

The subject of the test is diabetic neuropathy (nerve conduction, vasa nervorum, NGF). Briefly: Streptozotocin (STZ) diabetic rat model of diabetic neuropathy. The class given is in vivo. The procedure: Diabetes was induced in male Wistar rats (Charles River, UK or Harlan, San Diego, USA) with an intraperitoneal injection (55 mg/kg) of streptozotocin (STZ; Sigma) given after an overnight fast. The drug was freshly dissolved in sterile saline immediately before injection. Three days later, tail vein blood glucose was measured by a strip-operated reflectance photometer and any STZ-treated rats with blood glucose <15 mmol/l were removed from the study. Rats were group-housed with free access to food and water in a 12 h light/dark cycle. At the end of each study, blood samples were collected from all rats, plasma extracted and plasma glucose levels measured by spectophotometric assay using a commercial kit (Sigma, St. Louis, Mo.). […] Motor nerve conduction velocity (MNCV) was measured from latencies of the compound M waves of the electromyogram in the hindlimb, and sensory nerve conduction velocity (SNCV) was measured from H reflex latencies in the same system. […] Stimulation of the nerve was performed at the sciatic notch and Achilles tendon and evoked electromyograms were recorded from the interosseus muscles of the foot. […] NGF was measured in extracts from segments of sciatic nerve by ELISA as described by P. Fernyhough et al. Human recombinant nerve growth factor replaces deficient neurotrophic support in the diabetic rat. […]

With `CNC1CCC(N(Cc2ccc(OC)c(-c3ccc(C#N)cc3)c2)C(=O)c2sc3ccccc3c2Cl)CC1` (centres unmarked) [D], the “blood flow to the damaged nerves (sciatic vasa nervorum)” value (laser Doppler perfusion imaging and BS-1 lectin fluorescent imaging) is “improved”. Moreover, under “rat STZ model”, the “levels of nerve growth factor (NGF) in the sciatic nerve” value was “increased levels of nerve growth factor (NGF)”.
